Experimental data reported in US4357324A, “Prodrug derivatives of 9β-D-arabinofuranosyl-2-fluoroadenine” (The United States of America as represented by the …, priority 1981, dated 1982).

Experiments:
[1] = Water solubility (statement); assay type: physicochemical; details: in words
[2] = tested on: L1210 Leukemia; assay: Activity against L1210 leukemia, 10^5 L1210 cell IP (Table IV); assay type: in vivo, mice; details: for lifespan and cures of mice implanted with leukemia L1210 cells: FIGS. 1 and 3; for Lifespan: untreated control 8
Procedure: (§1) These higher levels of the active agent that last for longer periods of time allow effective treatment with these drugs given once a day for nine days (see FIGS. 1, 2 and 3).
(§2) It has been noted that the antitumor activity of 9-β-D-arabinofuranosyl adenine (ara-A) is enhanced by the incorporation of a fluorine atom at the 2-carbon. […] To overcome this difficulty two water-soluble derivatives, the 5'-formate and the 5'-phosphate, were prepared.

[3] = tested on: L1210 cells; assay: Nanomoles of triphosphate per gm L1210 cells after treatment (Table I); assay type: in vivo, mice; details: for levels of F-ara-A triphosphate in leukemic cells versus F-ara-A itself: mouse, in vivo
Procedure: as §1, §2

[4] = tested on: L1210/0 Leukemia; assay: Activity against L1210/0 leukemia, 10^5 IP (Tables II and III); assay type: in vivo, mice
Procedure: as §1
Treatment: IP; QD 1-9 Days*
*2'dCF Given 30 Minutes Before araA
as §2

[5] = Conversion to the parent drug in vivo (statement); details: in words
[6] = in words; second component of the two-drug combination; cited from earlier work
[7] = Table II, 150 mg/kg/dose, IP, QD 1-9 days
[8] = mice implanted with leukemia L1210 cells
[9] = Table IV, 375 mg/kg/day, q3h, days 1,5,9
[10] = Table IV, 219 mg/kg/day, qd 1-9

Nc1nc(F)nc2c1ncn2[C@@H]1O[C@H](COC=O)[C@@H](O)[C@@H]1O [F-ara-A5'-formate, 9-(5-O-formyl-β-D-arabinofuranosyl)-2-fluoroadenine]
solubility [1]: water-soluble | lifespan and cures of mice implanted with leukemia L1210 cells [2]: good increases in lifespan and some cures | levels of F-ara-A triphosphate in leukemic cells versus F-ara-A itself [3]: higher levels | % ILS [4, 7]: 177% | Cures [4, 7]: 3/10 | Median Lifespan ([4]; Table II, 150 mg/kg/dose, IP, QD 1-9 days, untreated control 9): 25 days | Cures [4, 8]: three | increase in lifespan [4, 8]: 177% | conversion to the parent drug in vivo [5]: converted to the parent drug in vivo

Nc1nc(F)nc2c1ncn2[C@@H]1O[C@H](CO)[C@@H](O)[C@@H]1O [F-ara-A, 9-β-D-arabinofuranosyl-2-fluoroadenine, reference compound]
solubility [1]: very insoluble | levels of the triphosphate in L1210 versus ara-A+2'dCF ([3]; near equimolar doses): higher levels

Nc1ncnc2c1ncn2[C@@H]1O[C@H](CO)[C@@H](O)[C@@H]1O [ara-A, 9-β-D-arabinofuranosyl adenine, reference compound]
effectiveness ([2]; optimal schedule, every 3 hours for 24 hours): not very effective

Nc1ncnc2c1ncn2[C@@H]1O[C@H](COP(=O)(O)O)[C@@H](O)[C@@H]1O [Ara-AMP, 9-β-D-arabinofuranosyl adenine 5'-phosphate, reference compound]
% ILS [2, 9]: 62% | Lifespan [2, 9]: 13 days

OC[C@H]1O[C@@H](n2cnc3c2NC=NC[C@H]3O)C[C@@H]1O [2'-dCF]
toxicity [6]: clear but not completely defined toxicity

Nc1nc(F)nc2c1ncn2[C@@H]1O[C@H](COP(=O)(O)O)[C@@H](O)[C@@H]1O [F-ara-AMP, 9-β-D-arabinofuranosyl-2-fluoroadenine 5'-phosphate]
solubility [1]: water-soluble | lifespan and cures of mice implanted with leukemia L1210 cells [2]: good increases in lifespan and some cures | % ILS [2, 10]: 125% | Cures [2, 10]: 3/10 | Lifespan [2, 10]: 18 days | levels of F-ara-A triphosphate in leukemic cells versus F-ara-A itself [3]: higher levels | conversion to the parent drug in vivo [5]: converted to the parent drug in vivo
